Columns and labels:
MDA-MB-231 cells [1] = assay: Extracellularly released ATP (ICD biomarker) after DOX or CIS; assay type: cell-based, human; details: different concentrations of drug
Method: (§1) First, the efficacy of doxorubicin (DOX) as a potent ICD inducer in a breast cancer 4T1 tumor model and cancer cells was tested by monitoring the change in the TME (tumor microenvironment). To validate the immunogenic effect of DOX, immunogenic cell death (ICD) biomarkers, such as extracellularly released ATP and cell surface expressing CRT, were monitored in breast cancer cells (human: MDA-MB-231 cells; mouse: 4T1 cells) treated with different concentrations of DOX and cisplatin (CIS), a non-ICD inducer, as a comparative control group.

MDA-MB-231 cells [2] = assay: Cell surface CRT expression (ICD biomarker) after DOX or CIS; assay type: cell-based, human; details: different concentrations of drug
Method: as §1

4T1 cells [3] = assay: Extracellularly released ATP (ICD biomarker) after DOX or CIS; assay type: cell-based, mouse; details: different concentrations of drug
Method: as §1

4T1 cells [4] = assay: Vaccine approach: tumor growth in Balb/c mice vaccinated with drug-treated dead 4T1 cells; assay type: in vivo; details: DOX 30 μM or CIS 100 μM; live 4T1 cells in opposite flank; 25 days
Method: (§2) The effect of DOX-induced ICD in Balb/c mice was further validated by vaccine approach. Dead 4T1 cells were subcutaneously injected into one flank of Balb/c mice together with an anticancer agent such as DOX (30 μM) or CIS (100 μM), or phosphate-buffered saline (PBS; control), twice for 2 weeks, with a 1-week interval. At two weeks after the first injection, live 4T1 cancer cells were injected into the opposite flank and the change in tumor size was evaluated for 25 days.

4T1 cells [5] = assay: Cell surface CRT expression (ICD biomarker) after DOX or CIS; assay type: cell-based, mouse; details: different concentrations of drug
Method: as §1

IDO1 [6] = assay: IDO1 expression in tumors obtained by vaccine approach; assay type: in vivo, Balb/c mice; details: mice vaccinated with drug-treated 4T1 cells
Method: as §2
(§3) Subsequently, it was investigated whether the DOX-induced ICD can induce the expression of IDO1 in a breast cancer mouse model as an indicator of the immune evasion mechanism in TME. In order to investigate the relationship between the expression of ICD and IDO1 in TME, the expression level of IDO1 in the tumors obtained by vaccine approach was investigated, and the result is shown in FIG. 4. […] Meanwhile, it was confirmed that the DOX-induced ICD upregulates IDO1 expression in tumor tissues via the immune evasion mechanism.

IDO1 [7] = assay: IDO1 expression level in tumor tissue of 4T1 tumor xenograft mice; assay type: in vivo; details: day 24
Method: (§4) The effective inhibition of tumor growth improves anticancer immune response by reversing immunosuppressive TME to immunoresponsive TME in vivo by Aptm [DOX/IDO1]. In order to investigate whether tumor size reduction and TME control are mediated by IDO1 siRNA delivered to the 4T1 tumor xenograft mice, the IDO1 expression level in the tumor tissue of the mice was analyzed on day 24, and the result is shown in FIG. 20. The IDO1 expression level in the tumor obtained from the mice treated with free DOX was increased as compared to the IDO1 expression level in the tumor obtained from the mice treated with saline. […] In the tumor, the IDO1 expression was increased by the administration of Aptm [DOX/Ctr] lacking IDO1 siRNA. It is thought that the increased IDO1 expression is due to the improved ICD against the tumor due to the effective delivery of DOX using the CD44/PD-L1 aptamosome. Accordingly, the inhibition of IDO1 in combination with ICD can induce anticancer immune response in the immunoresponsive TME by Aptm [DOX/IDO1].

MDA-MB-231 cells [8] = assay: Intracellular distribution of DOX by confocal microscopy; assay type: cell-based, human
Method: (§5) In order to investigate the intracellular distribution of DOX and IDO1 siRNA delivered by the CD44/PD-L1 aptamosome, cells were treated with free DOX, Lipm [DOX/IDO1] and Aptm [DOX/IDO1] and analyzed by confocal microscopy with increasing incubation time. […] Nevertheless, a large amount of DOX was delivered easily by Aptm [DOX/IDO1] with the passage of time, and it was gradually delivered into the nucleus of MDA-MB-231 and 4T1 cells within 2 hours.

4T1 = assay: Cytotoxicity (cell survivability); assay type: cell-based, mouse; details: 24 hours and 36 hours
Method: (§6) Next, the cytotoxicity by an anticancer agent delivered together with Aptm [DOX/IDO1] was evaluated, and the result is shown in FIG. 16. Breast cancer cells (MDA-MB-231 and 4T1) and control group liver cells (HepG2) were treated with free DOX, Lipm [DOX/IDO1] and Aptm [DOX/IDO1] for 24 hours and 36 hours.

4T1 tumor = assay: Anticancer efficacy in 4T1 tumor xenograft mice (tumor size); assay type: in vivo; details: i.v. 4 times with 4-day intervals; DOX 0.3 mg/kg, siRNA 0.35 mg/kg; day 24
Method: In addition, the anticancer efficacy of Aptm [DOX/IDO1] in the 4T1 tumor xenograft mice was investigated by measuring the decrease of tumor size, and the result is shown in FIG. 18. After the tumor size grew to 60-80 mm^3, the mice were divided randomly into 5 groups (5 mice per group) and each reagent was intravenously 4 times with 4-day intervals: saline (control group), free DOX (0.3 mg/kg), Lipm [DOX/IDO1], Aptm [DOX/IDO1] and Aptm [DOX/Ctr], each liposome containing the same amount of DOX (0.3 mg/kg) and siRNA (0.35 mg/kg). […] Morbidity was not observed when the mice were treated with Aptm [DOX/IDO1]. In particular, when the mice were treated with Aptm [DOX/Ctr] containing scrambled siRNA instead of IDO1 siRNA, the tumor size decreased by about 37.0% (vs. saline administration) due to decreased effect of inhibiting tumor growth. That is, the delivered IDO siRNA inhibits tumor growth by controlling TME.

4T1 breast cancer cells = assay: Tumor metastasis to the lung in 4T1 tumor-bearing mice (H&E); assay type: in vivo; details: H&E staining of lung tissue
Description: Finally, it was investigated whether the administration of Aptm [DOX/IDO1] can inhibit tumor metastasis in 4T1 tumor-bearing mice. For detection of metastatic tumors, tumor tissues from the terminal part of the lung of the mice were stained with hematoxylin and eosin (H&E), and the images are shown in FIG. 21. […] Therefore, it was confirmed that the systemic administration of Aptm [DOX/IDO1] through the blood can inhibit tumor metastasis through targeted delivery of an anticancer drug targeting breast cancer cells.

MDA-MB-231 = assay: Cytotoxicity (cell survivability); assay type: cell-based, human; details: 24 hours and 36 hours
Method: as §6

breast cancer cells = assay: DOX-induced ICD: extracellular ATP release after liposome treatment; assay type: cell-based
Method: Then, DOX-induced ICD was evaluated by monitoring extracellular ATP release and expression of cell surface CRT, which is an ICD marker, and the result is shown in FIG. 14.

[9] = tested on: control group liver cells (HepG2); assay: Cytotoxicity (cell survivability); assay type: cell-based; details: 24 hours and 36 hours
Method: as §6

TNFα = TNFα secretion in the tumor of 4T1 tumor xenograft mice; details: mouse, in vivo
Method: As the effect of Aptm [DOX/IDO1] on the control of tumor microenvironment (TME), cell death, ICD marker, immune cell ratio and TNF secretion in the tumor tissue of 4T1 tumor xenograft mice were evaluated. In order to investigate DOX-induced apoptotic cell death, TUNEL assay was conducted with the tumor tissues of 4T1 tumor xenograft mice.
as §4

4T1 cells [10] = assay: Intracellular distribution of DOX by confocal microscopy; assay type: cell-based, mouse
Method: as §5

4T1 cells [11] = assay: IDO1 and PD-L1 expression under IFNγ stimulation; assay type: cell-based, mouse
Description: (§7) ICD-mediated immune response can invalidate the immune evasion mechanism of TME, such as overexpression of the immune checkpoint protein and IDO1. Accordingly, the expression of IDO1 and PD-L1 under IFNγ stimulation was monitored also in MDA-MB-231 and 4T1 cells.
as §3

MDA-MB-231 cells [12] = assay: IDO1 and PD-L1 expression under IFNγ stimulation; assay type: cell-based, human
Description: as §7, §3

Row | Compound | level of extracellularly released ATP (MDA-MB-231 cells [1]) | CRT expression on the cancer cell surface (MDA-MB-231 cells [2]) | level of extracellularly released ATP (4T1 cells [3]) | tumor growth after vaccination with drug-treated dead 4T1 cells (4T1 cells [4]) | CRT expression on the cancer cell surface (4T1 cells [5]) | IDO1 protein and mRNA expression in tumor tissues (IDO1 [6]) | IDO1 expression level in the tumor (IDO1 [7]) | time until DOX reached the nucleus (MDA-MB-231 cells [8]) | cell survivability (4T1) | tumor size decrease as compared to saline (4T1 tumor) | metastatic tumor in the lung (4T1 breast cancer cells) | cell survivability (MDA-MB-231) | extracellular ATP release (breast cancer cells) | cell survivability [9] | TNFα secretion in the tumor (TNFα) | time until DOX reached the nucleus (4T1 cells [10]) | expression level of IDO1 (4T1 cells [11]; IFNγ stimulation) | PD-L1 expression on the cell surface (4T1 cells [11]; IFNγ-treated cells) | expression level of IDO1 (MDA-MB-231 cells [12]; IFNγ stimulation) | PD-L1 expression on the cell surface (MDA-MB-231 cells [12]; IFNγ-treated cells)
1 | N.N.[Cl][Pt][Cl] [CIS, cisplatin] | did not increase the level of extracellular ATP | did not increase the CRT expression on the cancer cell surface | did not increase the level of extracellular ATP | did not inhibit tumor growth significantly | did not increase the CRT expression on the cancer cell surface | increased expression of IDO1 protein and mRNA | – | – | – | – | – | – | – | – | – | – | – | – | – | –
2 | COc1cccc2c1C(=O)c1c(O)c3c(c(O)c1C2=O)C[C@@](O)(C(=O)CO)C[C@@H]3O[C@H]1C[C@H](N)[C@H](O)[C@H](C)O1 [DOX, doxorubicin] | increased gradually with the concentration of DOX | increased gradually as the concentration of DOX increased | increased gradually with the concentration of DOX | effectively inhibited tumor growth | increased gradually as the concentration of DOX increased | highest IDO1 protein and mRNA expression | increased | up to 1 hour | lowest | did not reduce tumor size enough | extensive filtration of 4T1 breast cancer cells was observed in the lung | lowest | A large amount of ATP was released | lowest | relatively low TNFα secretion | up to 1 hour | – | – | – | –
3 | IFNγ: cytokine used to stimulate IDO1 and PD-L1 expression in cancer cells | – | – | – | – | – | – | – | – | – | – | – | – | – | – | – | – | significantly upregulated | highly expressed | significantly upregulated | highly expressed

Source: patent US20260191986A1, “LIPOSOME-BASED DRUG CARRIER FOR IMMUNE ANTICANCER THERAPY AND METHOD FOR PRODUCING SAME” (KONKUK UNIVERSITY INDUSTRIAL COOPERATION CORP, priority 2022, published 2026)
